Measured values as given in patent US20260265694A1, “USE OF A VITISIN COMPOUND FOR THE PRODUCTION OF HEMATOPOIETIC CELLS” (ETABLISSEMENT FRANCAIS DU SANG, priority 2022, published 2026).

Experiments:
Assay type in all cases: cell-based, human
[1] = tested on: peripheral blood CD34+ cells; assay: ERYTHRO 1 PROTOCOL: simplified two-phase erythrocyte differentiation; details: versus CTRL, FIG. 3
Experimental: b. ERYTHRO 1 PROTOCOL: Simplified Ex Vivo Erythrocyte Differentiation Protocol (in Two Phases) This protocol was applied to CD34^+ cells from peripheral and placental blood, pre-stimulated SP cells, CMP cells and MEP cells. For this culture, the cell populations of interest are isolated as indicated previously and cultured in IMDM culture medium supplemented as follows: • 15% BIT 9500 (Stem Cell Technologies). […] The various cell populations were seeded in 24-well plates at 200 000 cells/mL for CD34^+, CMPs and MEPs. All of the cells recovered after the “Amplification/pre-stimulation” step for SP cells (i.e. 5000-50 000 cells) were cultured in 24-well plates. This culture includes two phases: • Phase 1: D0 to D6, EPO-free culture • Phase 2: from D6, addition of 2 IU/ML EPO and extension of culturing up to D21 minimum and D28 maximum.
(§1) In order to test the effect of vitisin B in this context, the culturing is performed in the absence and presence of vitisin B: • CTRL condition: Absence of vitisin B throughout the entire protocol. • Test condition: Presence of vitisin B at 5, 10, 15, 20 or 30 μM for the entire duration of the protocol (phase 1+phase 2). During the culture protocol, the differentiation product is analyzed by quantifying proliferation (counting) and analyzing erythrocyte differentiation markers by means of flow cytometry, using the markers CD71 and CD235a. c. ERYTHRO 2 PROTOCOL: Three-Phase Erythrocyte Differentiation Protocol
During and at the end of the various erythrocyte differentiation protocols, cell proliferation and cell differentiation are analyzed. Cell proliferation is evaluated by counting of cells on Malassez slides, with Trypan blue exclusion of dead cells. The different populations and culture conditions are also analyzed by flow cytometry, so as to observe the appearance of erythrocyte differentiation markers and thus cell differentiation kinetics. […] After resuspension of the cell pellets in PBS, the cells are analyzed by flow cytometry (FACSCantoll, Becton Dickinson, San Jose, CA). […]

[2] = tested on: SP cells (CD34+DCVlow) isolated from peripheral blood CD34+ cells; assay: ERYTHRO 1 PROTOCOL on sorted SP cells; details: SPs, 10 μM, as early as D7, FIG. 4B
Experimental: SP cells are identifiable by virtue of their property of expelling certain dyes such as Hoescht or Dye Cycle Violet (DCV)). This expulsion takes place by means of […] ATP Binding Cassette (ABCG2) pumps (Brunet de la Grange et al., 2013). To identify SP cells within previously isolated CD34^+ cells, they are incubated with a DCV dye (5 μM) in DMEM^+ medium (Dulbecco's Modified Eagle's Medium (DMEM), 2% FCS, 1% HEPES) for 2 h at 37° C. and in the dark. After incubation, all manipulations up to final cell sorting are performed on ice and in PBS^+ medium (PBS, 2% FCS), a glucose- and calcium-depleted medium which stops the expulsion pumps. […] CD34^+ cells having a low fluorescence intensity for the DCV marker (CD34^+ SP cells) are analyzed (UV 350 nm or violet 405 nm), sorted and recovered using an ARIA cell sorter (Becton Dickinson). […]
as §1, with “ERYTHRO 2 PROTOCOL: Three-Phase Erythrocyte Differentiation Protocol” left out

[3] = tested on: BFU-E and CFU-E erythrocyte progenitors from placental blood CD34+ cells; assay: CFC clonogenic assay of BFU-E and CFU-E during phase 1 of ERYTHRO 2; details: 10 μM
Experimental: • CTRL condition: cells are cultured for 7 days in the absence of vitisin B. • TEST condition: cells are cultured for 7 days in the presence of vitisin B at 10 μM.
To this end, the CFC (Colony Forming Cells) test is used. Committed progenitors are capable of generating colonies after culture in a semisolid medium composed of methylcellulose and supplemented with cytokines. Thus, committed progenitors (here BFU-Es and CFU-Es) produced during erythrocyte cultures can be counted.
This analysis of BFU-E and CFU-E production was performed only during phase 1 of PROTOCOL 2. Cells grown and harvested on days 4, 8 and 11 of phase 1 were seeded in a ready-to-use cytokine-supplemented methylcellulose H4034 kit (Stem Cell Technology, Meylan, France) at concentrations of 150 cells/[…] H4034 for day 4 and 300 cells/250

In the case of `Oc1ccc(C2Oc3ccc(/C=C/c4cc(O)cc5c4[C@H](c4cc(O)cc(O)c4)[C@@H](c4ccc(O)cc4)O5)cc3C2c2cc(O)cc3c2C(c2cc(O)cc(O)c2)C(c2ccc(O)cc2)O3)cc1` (stereo in doubt) [vitisin B, 5-[(2R,2'S,3R,3'S)-5-[(1E)-2-[(2S,3S)-3-(3,5-Dihydroxyphenyl)-2,3-dihydro-6-hydroxy-2-(4-hydroxyphenyl)-4-benzofuranyl]ethenyl]-2,2′,3,3′-tetrahydro-6′-hydroxy-2,2′-bis(4-hydroxyphenyl)[3,4′-bibenzofuran]-3′-yl]-1,3-benzenediol], the CD71 expression ([1]; flow cytometry) was “more rapid decline”, the “acquisition of CD235a (GPA)” value ([1]; flow cytometry) was “earlier acquisition” and the “differentiation of CD34+ cells into erythrocyte precursors” value ([1]; vitisin B 5-30 μM for the entire protocol) was “faster and greater differentiation”. For the same molecule, the “reduction relative to the control in CD71 membrane expression” value [2] was “up to 40%”, the “appearance of primitive erythrocyte progenitors (BFU-Es)” value ([3]; clonogenic assay at D4, D8, D11, FIG. 7A) was “accelerated the appearance” and the “appearance of more differentiated progenitors (CFU-Es)” value ([3]; clonogenic assay at D4, D8, D11, FIG. 7B) was “accelerated the appearance”.
